The data set is described as follows: activity coefficient (dimensionless); of the first substance listed, at infinite dilution; xn = mol fraction of the nth substance listed. Particulars: 101 kPa, Liquid, Chromatography, x1 = 0.

Numbers after ± are expanded uncertainties.

Turning to `C=CCCCCC` [1-heptene] + CN1CCCC1=O, the activity coefficient (333.2 K) amounted to 6.37 ± 0.43, the activity coefficient (348.2 K) amounted to 6.24 ± 0.43 and the activity coefficient (363.2 K) worked out at 6.28 ± 0.43.

For `C=CCCCCC` [1-heptene] + O=CN1CCOCC1, the activity coefficient runs as follows: (333.2 K) 16 ± 1.1; (348.2 K) 14.6 ± 1; (363.2 K) 13.3 ± 0.91.

For `C#CCCCCC` [1-heptyne] + CN1CCCC1=O, the activity coefficient was determined as 1.72 ± 0.12 (333.2 K), 1.79 ± 0.12 (348.2 K) and 1.92 ± 0.13 (363.2 K).

As for `C#CCCCCC` [1-heptyne] + O=CN1CCOCC1, the activity coefficient came out at 3.85 ± 0.26 (333.2 K), 3.83 ± 0.26 (348.2 K) and 3.68 ± 0.25 (363.2 K).

Consider `C#CCCCC` [1-hexyne] + CN1CCCC1=O, for which the activity coefficient turned out to be 1.47 ± 0.1 (333.2 K), 1.57 ± 0.1 (348.2 K) and 1.77 ± 0.12 (363.2 K).

As for `C#CCCCC` [1-hexyne] + O=CN1CCOCC1, the activity coefficient is, setting by setting: (333.2 K) 3.25 ± 0.22; (348.2 K) 3.19 ± 0.22; (363.2 K) 2.78 ± 0.19.

On to `C#CCCCCCC` [1-octyne] + CN1CCCC1=O, for which the activity coefficient was 2.07 ± 0.14 (333.2 K), 2.15 ± 0.15 (348.2 K) and 2.16 ± 0.15 (363.2 K).

As to `C#CCCCCCC` [1-octyne] + O=CN1CCOCC1, the activity coefficient was 5.15 ± 0.35 (333.2 K), 4.9 ± 0.3 (348.2 K) and 4.65 ± 0.32 (363.2 K).

`C=CCCC` [1-pentene] + CN1CCCC1=O: the activity coefficient runs as follows: (333.2 K) 4.75 ± 0.32; (348.2 K) 4.84 ± 0.33; (363.2 K) 4.99 ± 0.34.

On to `C=CCCC` [1-pentene] + O=CN1CCOCC1, for which the activity coefficient was 9.97 ± 0.68 (333.2 K), 9.43 ± 0.64 (348.2 K) and 8.61 ± 0.59 (363.2 K).

With `C#CCCC` [1-pentyne] + CN1CCCC1=O, the activity coefficient is, setting by setting: (333.2 K) 1.27 ± 0.08; (348.2 K) 1.41 ± 0.09; (363.2 K) 1.63 ± 0.11.

With `C#CCCC` [1-pentyne] + O=CN1CCOCC1, the activity coefficient (333.2 K) was 2.56 ± 0.17, the activity coefficient (348.2 K) stood at 2.58 ± 0.18 and the activity coefficient (363.2 K) is 2.38 ± 0.16.

Take `c1ccccc1` [benzene] + CN1CCCC1=O: the activity coefficient (333.2 K) was found to be 1.1 ± 0.07, the activity coefficient (348.2 K) was 1.14 ± 0.07 and the activity coefficient (363.2 K) was determined as 1.1 ± 0.07.

Take `c1ccccc1` [benzene] + O=CN1CCOCC1: the activity coefficient is 1.91 ± 0.13 (333.2 K), 1.82 ± 0.12 (348.2 K) and 1.81 ± 0.12 (363.2 K).

For `C1CCCCCC1` [cycloheptane] + CN1CCCC1=O, the activity coefficient is, setting by setting: (333.2 K) 7.51 ± 0.51; (348.2 K) 6.71 ± 0.46; (363.2 K) 6.8 ± 0.46.

Take `C1CCCCCC1` [cycloheptane] + O=CN1CCOCC1: the activity coefficient is, setting by setting: (333.2 K) 15.4 ± 1.1; (348.2 K) 12.7 ± 0.87; (363.2 K) 10.5 ± 0.71.

In the case of `C1CCCCC1` [cyclohexane] + CN1CCCC1=O, the activity coefficient runs as follows: (333.2 K) 6.32 ± 0.43; (348.2 K) 5.83 ± 0.4; (363.2 K) 5.41 ± 0.37.

Consider `C1CCCCC1` [cyclohexane] + O=CN1CCOCC1, for which the activity coefficient amounted to 13.8 ± 0.94 (333.2 K), 12.3 ± 0.84 (348.2 K) and 11 ± 1 (363.2 K).

With `C1CCCCCCC1` [cyclooctane] + CN1CCCC1=O, the activity coefficient by setting is: (333.2 K) 8.23 ± 0.56; (348.2 K) 7.62 ± 0.52; (363.2 K) 6.06 ± 0.41.

On to `C1CCCCCCC1` [cyclooctane] + O=CN1CCOCC1, for which the activity coefficient reads like this: (333.2 K) 17.7 ± 1.2; (348.2 K) 14.5 ± 0.99; (363.2 K) 11.9 ± 0.81.

For the compound `C1CCCC1` [cyclopentane] + CN1CCCC1=O, the activity coefficient by setting is: (333.2 K) 5.16 ± 0.35; (348.2 K) 4.68 ± 0.32; (363.2 K) 4.55 ± 0.31.

For `C1CCCC1` [cyclopentane] + O=CN1CCOCC1, the activity coefficient was 10.2 ± 0.7 (333.2 K), 8.75 ± 0.6 (348.2 K) and 7.59 ± 0.52 (363.2 K).

For `CCO` [ethanol] + CN1CCCC1=O, the activity coefficient was 0.606 ± 0.042 (333.2 K), 0.605 ± 0.042 (348.2 K) and 0.618 ± 0.043 (363.2 K).

`CCO` [ethanol] + O=CN1CCOCC1: the activity coefficient is, setting by setting: (333.2 K) 1.2 ± 0.077; (348.2 K) 1.14 ± 0.073; (363.2 K) 0.914 ± 0.058.

As to `CCc1ccccc1` [ethylbenzene] + CN1CCCC1=O, the activity coefficient runs as follows: (333.2 K) 1.73 ± 0.12; (348.2 K) 1.83 ± 0.12; (363.2 K) 1.61 ± 0.11.

Take `CCc1ccccc1` [ethylbenzene] + O=CN1CCOCC1: the activity coefficient reads like this: (333.2 K) 3.46 ± 0.24; (348.2 K) 3.41 ± 0.23; (363.2 K) 3.21 ± 0.22.

For `CCCCCCC` [heptane] + CN1CCCC1=O, the activity coefficient runs as follows: (333.2 K) 11.4 ± 0.78; (348.2 K) 10.7 ± 0.73; (363.2 K) 10 ± 0.68.

For `CCCCCCC` [heptane] + O=CN1CCOCC1, the activity coefficient came out at 31.3 ± 2.1 (333.2 K), 27.5 ± 1.9 (348.2 K) and 25.9 ± 1.8 (363.2 K).

On to `C=CCCCC` [hex-1-ene] + CN1CCCC1=O, for which the activity coefficient runs as follows: (333.2 K) 5.51 ± 0.38; (348.2 K) 5.44 ± 0.37; (363.2 K) 5.57 ± 0.38.

Consider `C=CCCCC` [hex-1-ene] + O=CN1CCOCC1, for which the activity coefficient came out at 13.5 ± 0.92 (333.2 K), 11.6 ± 0.79 (348.2 K) and 10.5 ± 0.72 (363.2 K).

With `CCCCCC` [hexane] + CN1CCCC1=O, the activity coefficient turned out to be 9.51 ± 0.65 (333.2 K), 9.19 ± 0.63 (348.2 K) and 8.51 ± 0.58 (363.2 K).

On to `CCCCCC` [hexane] + O=CN1CCOCC1, for which the activity coefficient came to 24.6 ± 1.7 (333.2 K), 21.5 ± 1.5 (348.2 K) and 19.6 ± 1.3 (363.2 K).

For `CO` [methanol] + CN1CCCC1=O, the activity coefficient reads like this: (333.2 K) 0.482 ± 0.037; (348.2 K) 0.556 ± 0.04; (363.2 K) 0.511 ± 0.038.

For `CO` [methanol] + O=CN1CCOCC1, the activity coefficient was found to be 0.852 ± 0.055 (333.2 K), 0.847 ± 0.054 (348.2 K) and 0.706 ± 0.047 (363.2 K).

As for `CCCCCCCCC` [nonane] + CN1CCCC1=O, the activity coefficient runs as follows: (333.2 K) 16.7 ± 1.1; (348.2 K) 14.9 ± 1; (363.2 K) 12 ± 0.82.

As for `CCCCCCCCC` [nonane] + O=CN1CCOCC1, the activity coefficient is, setting by setting: (333.2 K) 50.2 ± 3.4; (348.2 K) 43.5 ± 3; (363.2 K) 38.2 ± 2.6.

With `C=CCCCCCC` [oct-1-ene] + CN1CCCC1=O, the activity coefficient is 8.39 ± 0.57 (333.2 K), 7.6 ± 0.52 (348.2 K) and 6.7 ± 0.46 (363.2 K).

As to `C=CCCCCCC` [oct-1-ene] + O=CN1CCOCC1, the activity coefficient by setting is: (333.2 K) 20.5 ± 1.4; (348.2 K) 18.4 ± 1.3; (363.2 K) 16.7 ± 1.1.

Consider `CCCCCCCC` [octane] + CN1CCCC1=O, for which the activity coefficient by setting is: (333.2 K) 13.8 ± 0.94; (348.2 K) 13.2 ± 0.9; (363.2 K) 10.6 ± 0.72.

With `CCCCCCCC` [octane] + O=CN1CCOCC1, the activity coefficient was 39.5 ± 2.7 (333.2 K), 34.3 ± 2.4 (348.2 K) and 30.6 ± 2.1 (363.2 K).

Take `CCCCC` [pentane] + CN1CCCC1=O: the activity coefficient by setting is: (333.2 K) 8.32 ± 0.57; (348.2 K) 8.11 ± 0.55; (363.2 K) 7.54 ± 0.51.

Take `CCCCC` [pentane] + O=CN1CCOCC1: the activity coefficient runs as follows: (333.2 K) 19.2 ± 1.3; (348.2 K) 17.3 ± 1.2; (363.2 K) 15.3 ± 1.

`CCCO` [propan-1-ol] + CN1CCCC1=O: the activity coefficient by setting is: (333.2 K) 0.537 ± 0.039; (348.2 K) 0.552 ± 0.04; (363.2 K) 0.548 ± 0.04.

As to `CCCO` [propan-1-ol] + O=CN1CCOCC1, the activity coefficient (333.2 K) is 1.25 ± 0.08, the activity coefficient (348.2 K) was 1.15 ± 0.073 and the activity coefficient (363.2 K) worked out at 0.913 ± 0.058.

As to `CC(C)O` [propan-2-ol] + CN1CCCC1=O, the activity coefficient was found to be 0.627 ± 0.043 (333.2 K), 0.639 ± 0.044 (348.2 K) and 0.632 ± 0.044 (363.2 K).

As for `CC(C)O` [propan-2-ol] + O=CN1CCOCC1, the activity coefficient is, setting by setting: (333.2 K) 1.46 ± 0.1; (348.2 K) 1.29 ± 0.083; (363.2 K) 0.933 ± 0.059.

For the compound `Cc1ccccc1` [toluene] + CN1CCCC1=O, the activity coefficient was determined as 1.39 ± 0.09 (333.2 K), 1.35 ± 0.09 (348.2 K) and 1.42 ± 0.09 (363.2 K).

`Cc1ccccc1` [toluene] + O=CN1CCOCC1: the activity coefficient by setting is: (333.2 K) 2.71 ± 0.18; (348.2 K) 4.04 ± 1.5; (363.2 K) 2.55 ± 0.17.
